We go through one compound from article PMC9288506, “Compounds activating VCP D1 ATPase enhance both autophagic and proteasomal neurotoxic protein clearance” (Nature Communications, 2022).

For test [1], the target named is T1, VCP (p97, Valosin-containing protein) (Homo sapiens, UniProt P55072).
T1 construct: Full-length VCP (6xHis-tag)
The experiment in a line: SPR (also DARTS, LiP-MS, competition pulldown, ATPase activation). In kind it is binding.

The target of the next test is BMX (Homo sapiens, UniProt P51813). The experiment in a line: biochemical. Further details: Thermo Fisher in vitro kinase panel, per cent inhibition of kinase activity at 10 uM. Here is the method:
(§1) Kinase profiling of SMER28 and analogs SMER28 and analogs were tested at 10 µM in a panel of 123 kinases at ThermoFisher Scientific. Follow-up of selected kinases for SMER28 and analogs was also performed at ThermoFisher Scientific. Data are shown in Supplementary Data 2 and 3. […] An inhibition of PIK3C could induce autophagy, mediated by signaling through the AKT/mTOR axis[45].

In another test the target is CAMK1 (CaMK1) (Homo sapiens, UniProt Q14012). The experiment in a line: biochemical. The arrangement: Thermo Fisher in vitro kinase panel, per cent inhibition of kinase activity at 10 uM. Here is the method:
as §1

For a further test, the target named is EGFR (ErbB1) T790M L858R (Homo sapiens, UniProt P00533, L858R/T790M). The experiment in a line: biochemical. Further details: Thermo Fisher in vitro kinase panel, per cent inhibition of kinase activity at 10 uM. Here is the method:
as §1

The next test concerns the target ERBB4 (HER4) (Homo sapiens, UniProt Q15303). The experiment in a line: biochemical. The arrangement: Thermo Fisher in vitro kinase panel, per cent inhibition of kinase activity at 10 uM. Here is the method:
as §1

A further test concerns the target FGFR1 (Homo sapiens, UniProt P11362). The experiment in a line: biochemical. Further details: Thermo Fisher in vitro kinase panel, per cent inhibition of kinase activity at 10 uM. Here is the method:
as §1

Another test concerns the target FGFR4 (Homo sapiens, UniProt P22455). The experiment in a line: biochemical. The arrangement: Thermo Fisher in vitro kinase panel, per cent inhibition of kinase activity at 10 uM. Here is the method: as §1
The next test concerns the target FLT1 (VEGFR1) (Homo sapiens, UniProt P17948). The experiment in a line: biochemical. Further details: Thermo Fisher in vitro kinase panel, per cent inhibition of kinase activity at 10 uM. Here is the method:
as §1

In a further test the target is FYN (Homo sapiens, UniProt P06241). The experiment in a line: biochemical. Further details: Thermo Fisher in vitro kinase panel, per cent inhibition of kinase activity at 10 uM. Here is the method:
as §1

The target in the next test is GSK3B (GSK3 beta) (Homo sapiens, UniProt P49841). The experiment in a line: biochemical. The arrangement: Thermo Fisher in vitro kinase panel, per cent inhibition of kinase activity at 10 uM. Here is the method: as §1
The target of another test is IGF1R (Homo sapiens, UniProt P08069). The experiment in a line: biochemical. The arrangement: Thermo Fisher in vitro kinase panel, per cent inhibition of kinase activity at 10 uM. Here is the method: as §1
The target of the next test is KIT (Homo sapiens, UniProt P10721). The experiment in a line: biochemical. Further details: Thermo Fisher in vitro kinase panel, per cent inhibition of kinase activity at 10 uM. Here is the method:
as §1

A further test concerns the target T2, LYN A (Homo sapiens, UniProt P07948).
T2 construct: isoform A
The experiment in a line: biochemical. The arrangement: Thermo Fisher in vitro kinase panel, per cent inhibition of kinase activity at 10 uM. Here is the method:
as §1

The target of the next test is MAPK1 (ERK2) (Homo sapiens, UniProt P28482). The experiment in a line: biochemical. Further details: Thermo Fisher in vitro kinase panel, per cent inhibition of kinase activity at 10 uM. Here is the method:
as §1

For another test, the target named is PAK2 (PAK65) (Homo sapiens, UniProt Q13177). The experiment in a line: biochemical. Further details: Thermo Fisher in vitro kinase panel, per cent inhibition of kinase activity at 10 uM. Here is the method: as §1
The next test addresses PAK4 (Homo sapiens, UniProt O96013). The experiment in a line: biochemical. Further details: Thermo Fisher in vitro kinase panel, per cent inhibition of kinase activity at 10 uM. Here is the method: as §1
Test [2] addresses PIK3CB/PIK3R1 (p110 beta/p85 alpha) (Homo sapiens, UniProt P42338). The experiment in a line: biochemical. The arrangement: Thermo Fisher in vitro kinase panel, per cent inhibition of kinase activity at 10 uM. Here is the method: as §1
Test [3] addresses PIK3CD/PIK3R1 (p110 delta/p85 alpha) (Homo sapiens, UniProt O00329). The experiment in a line: biochemical. Further details: Thermo Fisher in vitro kinase panel, per cent inhibition of kinase activity at 10 uM. Here is the method: as §1
A further test concerns the target PIM2 (Homo sapiens, UniProt Q9P1W9). The experiment in a line: biochemical. The arrangement: Thermo Fisher in vitro kinase panel, per cent inhibition of kinase activity at 10 uM. Here is the method:
as §1

The target in the next test is PRKACA (PKA) (Homo sapiens, UniProt P17612). The experiment in a line: biochemical. Further details: Thermo Fisher in vitro kinase panel, per cent inhibition of kinase activity at 10 uM. Here is the method:
as §1

A further test concerns the target PRKCQ (PKC theta) (Homo sapiens, UniProt Q04759). The experiment in a line: biochemical. The arrangement: Thermo Fisher in vitro kinase panel, per cent inhibition of kinase activity at 10 uM. Here is the method:
as §1

A further test concerns the target SRPK1 (Homo sapiens, UniProt Q96SB4). The experiment in a line: biochemical. The arrangement: Thermo Fisher in vitro kinase panel, per cent inhibition of kinase activity at 10 uM. Here is the method:
as §1

The next test addresses STK17A (DRAK1) (Homo sapiens, UniProt Q9UEE5). The experiment in a line: biochemical. Further details: Thermo Fisher in vitro kinase panel, per cent inhibition of kinase activity at 10 uM. Here is the method: as §1
The target of a further test is TNIK (Homo sapiens, UniProt Q9UKE5). The experiment in a line: biochemical. The arrangement: Thermo Fisher in vitro kinase panel, per cent inhibition of kinase activity at 10 uM. Here is the method:
as §1

Chain of MAPK1 (ERK2) (P28482 whole entry): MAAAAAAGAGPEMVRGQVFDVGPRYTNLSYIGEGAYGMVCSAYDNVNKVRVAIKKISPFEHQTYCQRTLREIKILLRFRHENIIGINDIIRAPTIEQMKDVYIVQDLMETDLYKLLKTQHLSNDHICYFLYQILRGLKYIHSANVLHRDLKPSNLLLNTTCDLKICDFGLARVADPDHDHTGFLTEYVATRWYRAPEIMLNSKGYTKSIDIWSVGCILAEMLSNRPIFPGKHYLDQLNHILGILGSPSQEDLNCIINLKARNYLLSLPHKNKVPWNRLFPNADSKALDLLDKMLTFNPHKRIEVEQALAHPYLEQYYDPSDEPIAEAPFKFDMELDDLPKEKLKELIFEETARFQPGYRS
Chain of PIM2 (Q9P1W9 whole entry): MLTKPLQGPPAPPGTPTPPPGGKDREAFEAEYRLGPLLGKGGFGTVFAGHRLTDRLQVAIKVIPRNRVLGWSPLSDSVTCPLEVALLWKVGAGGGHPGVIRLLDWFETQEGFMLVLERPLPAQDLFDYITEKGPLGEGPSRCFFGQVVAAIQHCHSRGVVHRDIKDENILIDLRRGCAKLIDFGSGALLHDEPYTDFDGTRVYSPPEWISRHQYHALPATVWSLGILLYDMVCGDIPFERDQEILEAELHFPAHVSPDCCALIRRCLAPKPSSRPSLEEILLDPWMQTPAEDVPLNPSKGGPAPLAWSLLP
Chain of FGFR4 (P22455 whole entry): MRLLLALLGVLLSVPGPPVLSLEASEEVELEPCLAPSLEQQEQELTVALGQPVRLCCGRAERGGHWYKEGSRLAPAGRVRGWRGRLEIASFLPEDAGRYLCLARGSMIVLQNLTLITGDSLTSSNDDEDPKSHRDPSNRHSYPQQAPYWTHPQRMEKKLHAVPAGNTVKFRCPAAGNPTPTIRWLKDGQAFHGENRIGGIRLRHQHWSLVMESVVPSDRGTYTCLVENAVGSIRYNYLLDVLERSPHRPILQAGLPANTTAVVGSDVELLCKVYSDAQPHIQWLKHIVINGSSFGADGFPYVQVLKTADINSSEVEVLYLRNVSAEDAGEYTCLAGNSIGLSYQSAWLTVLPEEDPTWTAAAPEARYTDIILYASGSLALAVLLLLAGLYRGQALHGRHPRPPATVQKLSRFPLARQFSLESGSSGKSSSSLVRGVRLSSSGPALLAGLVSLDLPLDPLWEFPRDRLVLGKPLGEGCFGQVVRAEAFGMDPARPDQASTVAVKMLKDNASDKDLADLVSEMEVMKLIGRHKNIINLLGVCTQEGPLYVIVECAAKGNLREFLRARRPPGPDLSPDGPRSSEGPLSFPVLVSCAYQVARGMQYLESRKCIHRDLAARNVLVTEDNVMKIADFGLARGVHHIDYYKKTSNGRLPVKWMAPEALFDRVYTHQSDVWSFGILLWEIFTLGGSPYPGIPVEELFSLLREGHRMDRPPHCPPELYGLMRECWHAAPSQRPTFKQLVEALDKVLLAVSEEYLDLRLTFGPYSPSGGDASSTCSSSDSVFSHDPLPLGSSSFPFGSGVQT
Chain of PRKCQ (PKC theta) (Q04759 whole entry): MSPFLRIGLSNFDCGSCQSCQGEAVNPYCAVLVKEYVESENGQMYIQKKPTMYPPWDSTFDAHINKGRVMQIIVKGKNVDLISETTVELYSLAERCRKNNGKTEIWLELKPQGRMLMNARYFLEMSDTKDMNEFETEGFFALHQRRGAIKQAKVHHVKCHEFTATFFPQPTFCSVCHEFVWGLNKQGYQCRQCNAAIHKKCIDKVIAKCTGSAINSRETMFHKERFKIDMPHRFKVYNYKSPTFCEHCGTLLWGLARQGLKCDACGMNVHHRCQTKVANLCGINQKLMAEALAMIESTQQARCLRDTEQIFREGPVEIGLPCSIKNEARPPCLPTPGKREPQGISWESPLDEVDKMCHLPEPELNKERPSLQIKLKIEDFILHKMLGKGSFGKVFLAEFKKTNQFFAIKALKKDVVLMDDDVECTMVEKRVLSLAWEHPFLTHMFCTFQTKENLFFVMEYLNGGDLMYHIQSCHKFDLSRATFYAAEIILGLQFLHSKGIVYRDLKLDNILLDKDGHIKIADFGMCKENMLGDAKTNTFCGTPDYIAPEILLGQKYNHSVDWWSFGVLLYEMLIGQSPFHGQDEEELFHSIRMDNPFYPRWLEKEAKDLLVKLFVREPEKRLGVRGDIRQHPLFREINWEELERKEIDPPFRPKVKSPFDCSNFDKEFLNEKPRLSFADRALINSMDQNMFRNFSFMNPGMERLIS
Chain of FYN (P06241 whole entry): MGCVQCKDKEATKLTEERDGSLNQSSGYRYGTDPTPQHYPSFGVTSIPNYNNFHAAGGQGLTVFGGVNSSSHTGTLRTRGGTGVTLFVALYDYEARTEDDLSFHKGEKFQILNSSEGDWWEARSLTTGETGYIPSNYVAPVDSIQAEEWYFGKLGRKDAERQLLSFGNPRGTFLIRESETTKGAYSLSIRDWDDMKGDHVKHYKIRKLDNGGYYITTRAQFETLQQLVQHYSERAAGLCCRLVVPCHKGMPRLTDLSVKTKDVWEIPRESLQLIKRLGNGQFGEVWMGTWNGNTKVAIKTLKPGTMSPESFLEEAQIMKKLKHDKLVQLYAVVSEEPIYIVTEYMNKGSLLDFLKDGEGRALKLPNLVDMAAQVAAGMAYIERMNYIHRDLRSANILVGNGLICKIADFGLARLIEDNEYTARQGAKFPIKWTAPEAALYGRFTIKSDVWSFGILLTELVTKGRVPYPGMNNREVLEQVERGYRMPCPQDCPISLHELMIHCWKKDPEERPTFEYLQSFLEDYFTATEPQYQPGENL
Chain of GSK3B (GSK3 beta) (P49841 whole entry): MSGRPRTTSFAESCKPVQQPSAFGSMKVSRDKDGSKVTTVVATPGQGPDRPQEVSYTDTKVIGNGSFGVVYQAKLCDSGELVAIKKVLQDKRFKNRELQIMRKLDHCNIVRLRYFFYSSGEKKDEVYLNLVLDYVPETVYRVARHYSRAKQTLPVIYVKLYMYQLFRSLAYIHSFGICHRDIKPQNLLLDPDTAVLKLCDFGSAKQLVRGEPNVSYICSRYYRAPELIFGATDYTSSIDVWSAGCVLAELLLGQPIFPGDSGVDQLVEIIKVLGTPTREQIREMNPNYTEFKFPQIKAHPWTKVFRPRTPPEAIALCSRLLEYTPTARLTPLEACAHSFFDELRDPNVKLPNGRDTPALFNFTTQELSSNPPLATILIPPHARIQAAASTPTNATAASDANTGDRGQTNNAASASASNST
Chain of BMX (P51813 whole entry): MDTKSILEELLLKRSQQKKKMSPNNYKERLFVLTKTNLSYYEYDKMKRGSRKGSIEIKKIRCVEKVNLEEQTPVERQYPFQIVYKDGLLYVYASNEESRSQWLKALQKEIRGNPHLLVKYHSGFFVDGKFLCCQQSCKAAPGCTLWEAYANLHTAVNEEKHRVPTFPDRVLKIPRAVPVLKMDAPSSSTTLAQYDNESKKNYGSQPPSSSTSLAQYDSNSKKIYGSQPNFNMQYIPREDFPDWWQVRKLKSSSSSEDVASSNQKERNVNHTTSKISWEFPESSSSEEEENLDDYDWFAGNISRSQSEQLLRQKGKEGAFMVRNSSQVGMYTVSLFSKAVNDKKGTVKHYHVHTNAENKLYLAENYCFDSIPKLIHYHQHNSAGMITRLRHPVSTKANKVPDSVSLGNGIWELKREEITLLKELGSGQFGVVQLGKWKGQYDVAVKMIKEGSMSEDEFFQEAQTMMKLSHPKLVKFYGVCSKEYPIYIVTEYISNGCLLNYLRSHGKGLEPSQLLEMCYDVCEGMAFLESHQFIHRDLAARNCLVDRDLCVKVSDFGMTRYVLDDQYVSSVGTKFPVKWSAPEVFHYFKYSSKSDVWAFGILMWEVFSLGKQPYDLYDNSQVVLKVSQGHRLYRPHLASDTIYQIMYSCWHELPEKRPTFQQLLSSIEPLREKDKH
T2 sequence (P07948 whole entry, canonical isoform): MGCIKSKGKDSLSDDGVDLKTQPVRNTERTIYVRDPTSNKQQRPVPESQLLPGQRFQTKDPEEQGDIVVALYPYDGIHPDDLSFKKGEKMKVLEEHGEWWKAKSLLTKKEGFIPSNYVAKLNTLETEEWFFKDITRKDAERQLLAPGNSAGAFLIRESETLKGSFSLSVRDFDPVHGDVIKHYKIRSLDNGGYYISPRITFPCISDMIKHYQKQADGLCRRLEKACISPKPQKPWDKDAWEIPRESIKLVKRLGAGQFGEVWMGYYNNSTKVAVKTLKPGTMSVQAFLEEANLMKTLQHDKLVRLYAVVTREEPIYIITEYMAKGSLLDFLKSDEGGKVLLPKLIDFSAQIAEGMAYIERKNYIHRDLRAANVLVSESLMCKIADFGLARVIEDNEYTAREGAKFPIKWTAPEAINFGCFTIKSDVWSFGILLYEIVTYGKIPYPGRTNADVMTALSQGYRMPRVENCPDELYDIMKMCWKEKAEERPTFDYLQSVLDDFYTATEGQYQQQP
Chain of STK17A (DRAK1) (Q9UEE5 whole entry): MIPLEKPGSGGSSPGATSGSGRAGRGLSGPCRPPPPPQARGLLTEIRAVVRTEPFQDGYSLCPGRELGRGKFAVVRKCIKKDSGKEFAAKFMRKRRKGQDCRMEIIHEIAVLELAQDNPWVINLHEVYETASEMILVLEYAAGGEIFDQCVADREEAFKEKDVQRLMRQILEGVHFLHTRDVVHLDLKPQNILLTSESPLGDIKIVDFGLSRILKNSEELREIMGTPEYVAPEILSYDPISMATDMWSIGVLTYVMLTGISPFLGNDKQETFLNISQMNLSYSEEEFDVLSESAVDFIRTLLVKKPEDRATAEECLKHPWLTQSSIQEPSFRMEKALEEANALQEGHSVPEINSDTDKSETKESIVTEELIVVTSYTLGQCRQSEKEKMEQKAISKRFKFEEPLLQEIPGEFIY

For orientation: Kd means the constant that tells how readily two partners part at equilibrium. A low value points to tighter binding. For orientation: inhibition means the change of the read-out against control, counted positive when it falls. Regarding `C=CCNc1ncnc2ccc(Br)cc12` [SMER28], in test [1], the dissociation constant Kd is roughly 750 nM. For the same compound, the inhibition at 10 µM on BMX is 11%; against CAMK1 (CaMK1) it was 13%; on EGFR (ErbB1) T790M L858R, 15%; against ERBB4 (HER4) it was 10%; on FGFR1, 27%; against FGFR4 it was 7%. Moreover, the inhibition at 10 µM at FLT1 (VEGFR1) was 9%; against FYN, 9%; at GSK3B (GSK3 beta) it was 24%; at IGF1R it was 12%; at KIT, 25%; at LYN A it was 20%. In addition, the inhibition at 10 µM on MAPK1 (ERK2) was -2%; against PAK2 (PAK65) it was 9%; against PAK4, 0%; in test [2] it was 23%; in test [3], 78%; at PIM2, -15%. The inhibition at 10 µM against PRKACA (PKA) amounted to 10%; against PRKCQ (PKC theta), 0%; against SRPK1, 5%; at STK17A (DRAK1) it was 34%; against TNIK, 38%.
